Data as given in US8026228B2, “Estrogenic compounds in combination with progestogenic compounds in hormone-replacement therapy” (Pantarhei Bioscience B.V., priority 2001, dated 2011).

Legend:
ovariectomized rats = test: Vaginal cornification bioassay, oral administration; assay type: in vivo, rat; settings: relatively low doses 0.1 and 0.3 mg/kg/day, compared with EE
From the text: Uterine weight increase in the rat is more commonly used as a measure of estrogenicity. […] In the early 1920s it was discovered that follicular fluid from the pig ovary contained a factor(s) that caused cornification/keratinization of the vaginal epithelium in the rat (Allen and Doisy, 1923, JAMA, 81, 819-821; Allen and Doisy, 1924, Am. J. Physiol., 69, 577-588). The so-called vaginal cornification response in rats subsequently provided a bioassay for testing estrogenicity. Vaginal epithelial cornification/keratinization in ovariectomized rats can be produced only by compounds considered to be true estrogens (Jones et al, 1973, Fert. Steril. 24, 284-291). […] Adult intact female CD rats were ovariectomized to induce estrogen deficiency. […] Castrate vaginal smears are indicative that complete ovariectomy was achieved. Treatment commenced following completion of the 7 days of smearing (day 0=first day of dosing). Animals were dosed, once daily for 7 consecutive days. Daily vaginal lavages continued to be obtained for 7 days after dosing was initiated in order to detect vaginal cornification, as an indication of an estrogenic response. […] Data are expressed as the number of rats showing vaginal cornification over the number of rats (ratio) treated.

Sham- and OVX-rats [1] = test: Osteoporosis model: ex vivo pQCT densitometry of proximal tibiae; assay type: in vivo, rat; settings: po 0.1-[…], 4 weeks
Experimental: (§1) The ovariectomized aged rat was used as a model for the human disease osteoporosis. This is an established animal model, recommended by the United States Food and Drug Administration (FDA), to evaluate and assess potential agents for osteoporosis prevention and therapy. The anti-resorptive efficacy of estetrol (E4) was tested by ex vivo measuring total and trabecular bone mineral density and bone strength after 4 weeks of treatment at necropsy. 17α-ethinyl-estradiol (EE) and vehicle (1% ethanol/arachidis oil) served as controls in this bioassay.
Three months old female Sprague-Dawley rats were either sham-operated (Sham) or ovariectomized (OVX) one day prior to commencement of the dosing study. Animals were anesthetized using a ketamine/xylazine anesthetic mixture and underwent a bilateral ovariectomy or were sham-treated. […]
Ex vivo peripheral Quantitative Computed Tomography (pQCT) was performed on the excised left tibiae using a Stratec XCT-RM and associated software (Stratec Medizintechnik GmbH, Pforzheim, Germany, software version 5.40). […] The scans were analyzed using a threshold for delineation of the external boundary. The total and trabecular bone mineral content, area and density at each site were determined. […]
(§2) Data are expressed as the mean values obtained for each group (n=10).

Sham- and OVX-rats [2] = test: Osteoporosis model: indentation test of distal femur (bone strength); assay type: in vivo, rat; settings: oral treatment, dose-dependent
Experimental: as §1
Three months old female Sprague-Dawley rats were either sham-operated (Sham) or ovariectomized (OVX) one day prior to commencement of the dosing study. Animals were anesthetized using a ketamine/xylazine anesthetic mixture and underwent a bilateral ovariectomy or were sham-treated. A section of hair on the dorsal surface was shaved and an incision made overlying the lumbar region of the spine. The skin was separated from the underlying fascia so that a second incision could be made through the abdominal musculature approximately caudal to the kidneys. […]
as §2
The maximum load, stiffness and energy absorbed were determined from load displacement curves. Ultimate strength was calculated by dividing the maximum load by the indenter area. […]

[3] = system: morphine-dependent ovariectomized (OVX) rat; test: Hot flush model: naloxone-induced tail skin temperature rise; assay type: in vivo
Experimental: The morphine-dependent ovariectomized (OVX) rat was used as a model for postmenopausal hot flush. The potency of estetrol (E4) to prevent tail skin temperature rises, normally accompanied by a drop in core body temperature, after naloxone-induced opiate withdrawal was tested. 17α-ethinyl-estradiol (EE) and vehicle (hydroxy propyl-beta-cyclodextrin 20% wt/vol) served as controls in this bioassay.
The morphine-dependent ovariectomized (OVX) rat model has been proposed by several investigators (Katovich et al, 1986, Maturitas, 67-76; Merchenthaler et al. 1998, Maturitas, 307-316) as an animal model for the hot flush. During opiate withdrawal with the morphine antagonist naloxone, tail skin temperature (TST) rises and this rise is accompanied by a drop in core body temperature. In addition, the temperature changes are accompanied by surges in LH and a transient tachycardia. These events are similar in magnitude and temporal nature to those observed in the menopausal hot flush.
Three days prior to the commencement of dosing, animals were anesthetized using a ketamine/xylazine anesthetic mixture and underwent a bilateral ovariectomy. A section of hair on the dorsal surface was shaved and an incision made overlying the lumbar region of the spine. The skin was separated from the underlying fascia so that a second incision could be made through the abdominal musculature approximately caudal to the kidneys. The ovaries were then exteriorized and removed and the musculature was closed with a single suture. The skin incision was closed using surgical staples. Six rats per treatment group were dosed once per day for eight consecutive days prior to and including the day of naloxone-induced opiate withdrawal (the hot flush session). The dosing commenced three days after surgical removal of the ovaries and was administered by oral gavage using a syringe and stainless steel gavage needle. […]
For the hot flush manipulations the animals were placed in a test cage. […] The tail-skin temperature was recorded until it was stable and the animals were then injected with naloxone HCl (1 mg/kg). […]

[4] = target: T1, human sex Hormone Binding Globulin (SHBG) (Homo sapiens, UniProt P04278); test: Competitive steroid-binding assay; settings: [^3H]DHT or [^3H]estradiol as labeled ligands; order ethinylestradiol, 17β-estradiol, testosterone, 5α-dihydrotestosterone
T1 construct: Human SHBG was purified from transgenic mouse serum; made in house; host or cells: transgenic mouse (serum)
T1 sequence (P04278 30-402): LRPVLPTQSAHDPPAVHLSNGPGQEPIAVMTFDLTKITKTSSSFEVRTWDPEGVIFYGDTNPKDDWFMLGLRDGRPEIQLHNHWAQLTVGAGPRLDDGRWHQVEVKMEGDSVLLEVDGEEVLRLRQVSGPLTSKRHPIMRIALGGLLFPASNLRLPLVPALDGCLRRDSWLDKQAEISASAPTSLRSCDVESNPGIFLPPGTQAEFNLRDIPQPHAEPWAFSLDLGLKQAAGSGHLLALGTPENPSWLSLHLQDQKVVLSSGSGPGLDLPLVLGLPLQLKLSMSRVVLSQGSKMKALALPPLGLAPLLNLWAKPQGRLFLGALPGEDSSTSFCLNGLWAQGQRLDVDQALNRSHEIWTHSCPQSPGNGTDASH
Experimental: Human SHBG was treated for 30 min at room temperature with a dextran-coated charcoal (DCC) suspension in phosphate buffered saline (PBS) to remove any steroid ligand. After centrifugation (2,000×g for 10 min) to sediment the DCC, the supernatant containing the human SHBG was diluted in PBS to a concentration of 1 nM based on its steroid binding capacity.
The average amounts of [^3H]labeled ligands bound to SHBG at each concentration of competitor (B) were expressed as a percentage of the average amounts of [^3H]labeled ligands bound to SHBG in the absence of competitor (B0), and were plotted against the concentration of competitor in each assay tube.

[5] = intravenous, two adult women, Fishman et al. 1970; cited from earlier work
[6] = system: human breast cancer cells (MCF-7); settings: in vitro cell proliferation, Jozan et al. 1981; cited from earlier work
immature rat uterus = settings: continuous administration from a subcutaneous depot, Martucci et al. 1977; cited from earlier work
[7] = system: estrogen receptors in the human endometrium; settings: Tseng et al. 1978; cited from earlier work
[8] = target: T2, rat uterine cytosol estrogen receptor (Rattus norvegicus, UniProt P06211); settings: Martucci et al. 1976; cited from earlier work
T2 construct: rat uterine cytosol estrogen receptor; host or cells: rat uterus (cytosol; nuclear fraction)
T2 sequence (P06211 1-600): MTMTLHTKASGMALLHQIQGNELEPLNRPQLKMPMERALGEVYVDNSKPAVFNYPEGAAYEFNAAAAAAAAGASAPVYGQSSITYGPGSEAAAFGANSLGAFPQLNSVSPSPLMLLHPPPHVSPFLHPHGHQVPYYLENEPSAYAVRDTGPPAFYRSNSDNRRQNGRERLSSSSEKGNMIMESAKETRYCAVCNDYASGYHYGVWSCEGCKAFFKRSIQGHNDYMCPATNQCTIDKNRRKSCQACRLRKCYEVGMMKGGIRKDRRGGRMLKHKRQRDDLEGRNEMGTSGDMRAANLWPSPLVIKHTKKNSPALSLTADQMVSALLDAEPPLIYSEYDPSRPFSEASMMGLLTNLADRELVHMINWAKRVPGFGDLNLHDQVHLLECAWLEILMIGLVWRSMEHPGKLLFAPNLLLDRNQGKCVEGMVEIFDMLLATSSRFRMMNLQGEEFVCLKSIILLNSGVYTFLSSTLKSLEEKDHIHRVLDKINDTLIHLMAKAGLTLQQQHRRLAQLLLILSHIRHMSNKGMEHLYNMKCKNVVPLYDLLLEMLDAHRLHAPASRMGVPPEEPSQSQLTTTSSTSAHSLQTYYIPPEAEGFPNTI

[9] = target: T3, rat uterine nuclear estrogen receptor (Rattus norvegicus, UniProt P06211); settings: Martucci et al. 1976; cited from earlier work
T3 construct: rat uterine cytosol estrogen receptor; host or cells: rat uterus (cytosol; nuclear fraction)
T3 sequence (P06211 1-600): T2 sequence (P06211 1-600)

## C[C@]12CC[C@@H]3c4ccc(O)cc4CC[C@H]3[C@@H]1[C@@H](O)[C@@H](O)[C@@H]2O [E4, 1,3,5(10)-estratrien-3,15α,16α,17β-tetrol]
Ovariectomized rats
  onset of vaginal cornification (animals responding at days 1-3): as fast as in EE-treated animals
Sham- and OVX-rats [1]
  total and trabecular bone mineral content and bone mineral density, dose dependence: consistent dose-dependent increase
Sham- and OVX-rats [2]
  declines in maximum load, stiffness, energy and ultimate strength: prevented the declines
[3]; oral treatment, all doses
  effect on naloxone-induced TST, dose dependence: clear dose-dependent effect
[3]; po 3.0 mg/kg/day (highest dose)
  effect on naloxone-induced TST compared with EE: suppressive response similar to the potent oral estrogen, 17α-ethinyl estradiol (EE)
[3]; po 0.3, 1.0 and 3.0 mg/kg/day (three highest doses)
  effect on naloxone-induced TST: attenuated the TST
[4]
  relative binding affinity for human SHBG: negligible
[5]
  excretion: rapidly and completely excreted in urine as the glucosiduronate
  metabolism: virtually no metabolism except for conjugation took place
[6]
  agonistic potency, of the magnitude observed for 17β-estradiol: 2%
Immature rat uterus
  uterotrophic activity: very weak uterotrophic activity
[7]
  relative binding, of 17β-estradiol: 1.5%
[8]
  relative binding affinity, of 17β-estradiol (100%): 0.5%
[9]
  relative binding affinity, of 17β-estradiol (100%): 0.3%

## C[C@]12CC[C@H]3[C@@H](CCC4=CC(=O)CC[C@@]43C)[C@@H]1CC[C@@H]2O [testosterone]
[4]
  relative binding affinity for human SHBG: in this order, show an increased relative binding affinity

## C[C@]12CCC(=O)C[C@@H]1CC[C@@H]1[C@@H]2CC[C@]2(C)[C@@H](O)CC[C@@H]12 [5α-dihydrotestosterone]
[4]
  relative binding affinity for human SHBG: in this order, show an increased relative binding affinity
